Reference: patent publication US9365499B2, “9-aminomethyl substituted tetracycline compounds” (KBP Biosciences Co., Ltd., priority 2011, dated 2016)
Converted amounts (≈) assume the structure as drawn. Where two headings read alike, the source gives them in different places.

Legend:
[1] = system: Acinetobacter baumannii; experiment: antibacterial activity in vitro, agar dilution method; type: cell-based; conditions: read-out: antibacterial activity MIC, Acinetobacter baumannii
Description: (§1) The antibacterial spectrum and in vitro antibacterial activity of the compound of the present invention
(§2) Experimental method: the agar dilution method, with reference to Clinical And Laboratory Standards Institute. Methods for Dilution Antimicrobial Susceptibility Tests for Bacteria That Grow Aerobically; Approved Standard-Seventh Edition. CLSI Document M7-A7. Vol 26, no. 2, Wayne, Pa.: Clinical and Laboratory Standards Institute, 2006.
(§3) Wherein MIC represents the minimum inhibitory concentration, MIC90 represents the 90% inhibitory concentration.

[2] = system: Escherichia coli; experiment: as above; type: cell-based
Description: as §1, §2, §3

[3] = system: Klebsiella oxytoca; experiment: as above; type: cell-based; conditions: Table 3
Description: as §1, §2, §3

[4] = system: Klebsiella pneumoniae; experiment: as above; type: cell-based
Description: as §1, §2, §3

[5] = system: Methicillin-resistant Staphycoccus epidermidis (MRSE); experiment: as above; type: cell-based; conditions: Staphylococcus epidermidis, Table 3
Description: as §1, §2, §3

[6] = system: Methicillin-resistant Staphylococcus aureus (MRSA); experiment: as above; type: cell-based
Description: as §1, §2, §3

[7] = in vivo; design: species or system male SD rats; conditions: male, SD, rat, 5 mg/kg
Description: Test animals: male SD rats, weighing 180-280 g, purchased from Beijing Vital River Laboratory Animal Technology Co., Ltd.; animal Certificate of Conformity: SCXK (Beijing) 2006-0009. Six rats were tested for each compound. the compounds of the present invention, prepared in accordance with the methods of above Examples, dissolved in physiological saline. tigecycline, dissolved in physiological saline. Administration of the compounds of the present invention: intravenous bolus injection (iv), dose: 5 mg/kg, administrating volume: 5 mL/kg; gavage (po), dose: 5 mg/kg, administrating volume: 5 mL/kg. Administration of tigecycline: gavage (po), dose: 10 mg/kg, administrating volume: 5 mL/kg. Prior to administration help but water fasting for 16 hours, 4 hours after administration to food. Compound 9: iv blood sampling time point: denoted by 0 min before administration, 5 min, 15 min, 30 min, 1 […] after administration; po blood sampling time point: denoted by 0 min before administration, 5 min, 15 min, 30 min, 1 […] after administration; Compound 20: iv blood sampling time point: 5 min, 15 min, 30 min, 1 […] after administration; po blood sampling time point: 10 min, 30 min, 1 […] after administration; Compound 23: iv blood sampling time point: denoted by 0 min before administration, 5 min, 15 min, 30 min, 1 […] after administration; po blood sampling time point: denoted by 0 min before administration, 5 min, 15 min, 30 min, 1 […] after administration; Tigecycline: iv blood sampling time point: 5 min, 15 min, 30 min, 1 h, 2 h, 4 h, 6 h, 8 h after administration; po blood sampling time point: 10 min, 30 min, 1 […] after administration. Each time point is taken around 100 μl whole blood and placed in a heparinized tube, centrifugated at 8000 rpm/min at 4° C. for 6 minutes in a low-temperature high-speed centrifuge to separate plasma, the resulting plasma was frozen at -80° C. refrigerator. Plasma samples analysis: 20 μl of plasma was taken and added 200 μl of internal standard solution, subjected to vortex for 3 minutes, then to centrifugation at 12,000 rpm/min for 5 minutes. 100 μl of supernatant was taken and analyzed using LC-MS/MS. Formula Absolute Bioavailability F%=[AUC](po)×Dose(iv)/[AUC](iv)×Dose(po)

[8] = system: Acinetobacter calcoaceticus; experiment: antibacterial activity in vitro, agar dilution method; type: cell-based; conditions: Table 4
Description: as §1, §2, §3

[9] = system: Enterococcus faecalis; experiment: as above; type: cell-based; conditions: Table 4
Description: as §1, §2, §3

[10] = system: Streptococus agalactiae; experiment: as above; type: cell-based; conditions: Table 4
Description: as §1, §2, §3

| Compound | MIC ([1]; Table 3, agar dilution) | MIC ([2]; Table 3) | MIC [3] | MIC ([4]; Table 3) | MIC [5] | MIC ([6]; Table 3, agar dilution) | MIC ([1]; Table 4, agar dilution) | MIC [8] | MIC [9] | MIC ([2]; Table 4) | MIC ([4]; Table 4) | MIC ([6]; Table 4, agar dilution) | MIC [10] | further results |
| --- | --- | --- | --- | --- | --- | --- | --- | --- | --- | --- | --- | --- | --- | --- |
| CN(C)c1cc(CN2CC(C)(C)C2)c(O)c2c1C[C@H]1C[C@H]3[C@H](N(C)C)C(O)=C(C(N)=O)C(=O)[C@@]3(O)C(O)=C1C2=O [Compound 1, (4S,4aS,5aR,12aS)-9-((3,3-dimethylazetidin-1-yl)methyl)-4,7-bis(dimethylamino)-3,10,12,12a-tetrahydroxy-1,1′-dioxo-1,4,4a,5,5a,6,11,12a-octahydrotetracene-2-carboxamide] | 1 µg/mL (≈ 1.8 µM) | 1 µg/mL (≈ 1.8 µM) | 1 µg/mL (≈ 1.8 µM) | 2 µg/mL (≈ 3.61 µM) | 1 µg/mL (≈ 1.8 µM) | 0.5 µg/mL (≈ 0.901 µM) |  |  |  |  |  |  |  |  |
| CN(C)c1cc(CN2CC3(CCC3)C2)c(O)c2c1C[C@H]1C[C@H]3[C@H](N(C)C)C(O)=C(C(N)=O)C(=O)[C@@]3(O)C(O)=C1C2=O [Compound 9, (4S,4aS,5aR,12aS)-9-(2-azaspiro[3.3]heptan-2-ylmethyl)-4,7-bis(dimethylamino)-3,10,12,12a-tetrahydroxy-1,1′-dioxo-1,4,4a,5,5a,6,11,12a-octahydrotetracene-2-carboxamide] | 4 µg/mL (≈ 7.06 µM) | 0.5 µg/mL (≈ 0.882 µM) | 1 µg/mL (≈ 1.76 µM) | 1 µg/mL (≈ 1.76 µM) | 0.5 µg/mL (≈ 0.882 µM) | 0.5 µg/mL (≈ 0.882 µM) |  |  |  |  |  |  |  | AUC(0-t) ([7]; iv): 6070 ng·h/mL; Vd ([7]; iv): 4.65 L/kg; clearance ([7]; iv): 13.3 mL/min/kg; half-life ([7]; iv): 5.85 h; AUC(0-t) ([7]; po): 216 ng·h/mL; Cmax ([7]; po): 35.6 ng/mL; Tmax ([7]; po): 1 h; bioavailability ([7]; po): 3.56% |
| CN(C)c1cc(CN2CC3(C2)CC(F)(F)C3)c(O)c2c1C[C@H]1C[C@H]3[C@H](N(C)C)C(O)=C(C(N)=O)C(=O)[C@@]3(O)C(O)=C1C2=O [Compound 16, (4S,4aS,5aR,12aS)-9-((6,6-difluoro-2-azaspiro[3.3]heptan-2-yl)methyl)-4,7-bis(dimethylamino)-3,10,12,12a-tetrahydroxy-1,1′-dioxo-1,4,4a,5,5a,6,11,12a-octahydrotetracene-2-carboxamide] | 1 µg/mL (≈ 1.66 µM) | 1 µg/mL (≈ 1.66 µM) | 1 µg/mL (≈ 1.66 µM) | 1 µg/mL (≈ 1.66 µM) | 0.5 µg/mL (≈ 0.83 µM) | 0.5 µg/mL (≈ 0.83 µM) |  |  |  |  |  |  |  |  |
| CN(C)c1cc(CN2CC3CC(C3)C2)c(O)c2c1C[C@H]1C[C@H]3[C@H](N(C)C)C(O)=C(C(N)=O)C(=O)[C@@]3(O)C(O)=C1C2=O [Compound 24, (4S,4aS,5aR,12aS)-9-(3-azabicyclo[3.1.1]heptan-3-ylmethyl)-4,7-bis(dimethylamino)-3,10,12,12a-tetrahydroxy-1,1′-dioxo-1,4,4a,5,5a,6,11,12a-octahydrotetracene-2-carboxamide] |  |  |  |  |  |  | 1 µg/mL (≈ 1.76 µM) | 0.25 µg/mL (≈ 0.441 µM) | 0.25 µg/mL (≈ 0.441 µM) | 1 µg/mL (≈ 1.76 µM) | 2 µg/mL (≈ 3.53 µM) | 0.5 µg/mL (≈ 0.882 µM) | 0.125 µg/mL (≈ 0.221 µM) |  |

More lines, main results first:

| MIC ([1]; Table 3, agar dilution) | MIC ([2]; Table 3) | MIC [3] | MIC ([4]; Table 3) | MIC [5] | MIC ([6]; Table 3, agar dilution) | MIC ([1]; Table 4, agar dilution) | MIC [8] | MIC [9] | MIC ([2]; Table 4) | MIC ([4]; Table 4) | MIC ([6]; Table 4, agar dilution) | MIC [10] | Compound | further results |
| --- | --- | --- | --- | --- | --- | --- | --- | --- | --- | --- | --- | --- | --- | --- |
| 0.25 µg/mL (≈ 0.459 µM) | 1 µg/mL (≈ 1.84 µM) | 0.25 µg/mL (≈ 0.459 µM) | 1 µg/mL (≈ 1.84 µM) | 0.5 µg/mL (≈ 0.918 µM) | 0.5 µg/mL (≈ 0.918 µM) |  |  |  |  |  |  |  | CN(C)c1cc(CN2CC(F)C2)c(O)c2c1C[C@H]1C[C@H]3[C@H](N(C)C)C(O)=C(C(N)=O)C(=O)[C@@]3(O)C(O)=C1C2=O [Compound 19, (4S,4aS,5aR,12aS)-4,7-bis(dimethylamino)-9-((3-fluoroazetidin-1-yl)methyl)-3,10,12,12a-tetrahydroxy-1,11-dioxo-1,4,4a,5,5a,6,11,12a-octahydrotetracene-2-carboxamide] |  |
|  |  |  |  |  |  | 0.5 µg/mL (≈ 0.861 µM) | 0.125 µg/mL (≈ 0.215 µM) | 0.125 µg/mL (≈ 0.215 µM) | 2 µg/mL (≈ 3.44 µM) | 4 µg/mL (≈ 6.89 µM) | 0.5 µg/mL (≈ 0.861 µM) | 0.125 µg/mL (≈ 0.215 µM) | CN(C)c1cc(CN2CC3C(C2)C3(C)C)c(O)c2c1C[C@H]1C[C@H]3[C@H](N(C)C)C(O)=C(C(N)=O)C(=O)[C@@]3(O)C(O)=C1C2=O (stereo partly drawn) [Compound 27, (4S,4aS,5aR,12aS)-9-((6-dimethyl-3-azabicyclo[3.1.0]hexan-3-yl)methyl)-4,7-bis(dimethylamino)-3,10,12,12a-tetrahydroxy-1,1′-dioxo-1,4,4a,5,5a,6,11,12a-octahydrotetracene-2-carboxamide] |  |
|  |  |  |  |  |  | 1 µg/mL (≈ 1.72 µM) | 0.125 µg/mL (≈ 0.215 µM) | 0.06 µg/mL (≈ 0.103 µM) | 1 µg/mL (≈ 1.72 µM) | 2 µg/mL (≈ 3.44 µM) | 0.5 µg/mL (≈ 0.861 µM) | 0.125 µg/mL (≈ 0.215 µM) | CN(C)c1cc(CN2CC3CCCC3C2)c(O)c2c1C[C@H]1C[C@H]3[C@H](N(C)C)C(O)=C(C(N)=O)C(=O)[C@@]3(O)C(O)=C1C2=O (stereo partly drawn) [Compound 28, (4S,4aS,5aR,12aS)-4,7-bis(dimethylamino)-9-((hexahydrocyclopenta[c]pyrrol-2(1H)-yl)methyl)-3,10,12,12a-tetrahydroxy-1,1′-dioxo-1,4,4a,5,5a,6,11,12a-octahydrotetracene-2-carboxamide] |  |
|  |  |  |  |  |  | 2 µg/mL (≈ 3.36 µM) | 0.25 µg/mL (≈ 0.42 µM) | 0.125 µg/mL (≈ 0.21 µM) | 1 µg/mL (≈ 1.68 µM) | 4 µg/mL (≈ 6.73 µM) | 1 µg/mL (≈ 1.68 µM) | 0.25 µg/mL (≈ 0.42 µM) | CN(C)c1cc(CN2CC3CCCCC3C2)c(O)c2c1C[C@H]1C[C@H]3[C@H](N(C)C)C(O)=C(C(N)=O)C(=O)[C@@]3(O)C(O)=C1C2=O (stereo partly drawn) [Compound 29, (4S,4aS,5aR,12aS)-9-((1H-isoindol-2(3H,3aH,4H,5H,6H,7H,7aH)-yl)methyl)-4,7-bis(dimethylamino)-3,10,12,12a-tetrahydroxy-1,11-dioxo-1,4,4a,5,5a,6,11,12a-octahydrotetracene-2-carboxamide] |  |
|  |  |  |  |  |  | 4 µg/mL (≈ 6.57 µM) | 0.5 µg/mL (≈ 0.821 µM) | 0.5 µg/mL (≈ 0.821 µM) | 4 µg/mL (≈ 6.57 µM) | 16 µg/mL (≈ 26.3 µM) | 1 µg/mL (≈ 1.64 µM) | 0.25 µg/mL (≈ 0.411 µM) | CN(C)c1cc(CN2CCC3CCCCC3C2)c(O)c2c1CC1CC3[C@H](N(C)C)C(O)=C(C(N)=O)C(=O)[C@@]3(O)C(O)=C1C2=O (stereo partly shown) [Compound c, reference compound] |  |
| 4 µg/mL (≈ 6.57 µM) | 2 µg/mL (≈ 3.29 µM) | 8 µg/mL (≈ 13.1 µM) | 8 µg/mL (≈ 13.1 µM) | 2 µg/mL (≈ 3.29 µM) | 1 µg/mL (≈ 1.64 µM) |  |  |  |  |  |  |  | CN(C)c1cc(CN2CCC3(CCCC3)CC2)c(O)c2c1CC1CC3[C@H](N(C)C)C(O)=C(C(N)=O)C(=O)[C@@]3(O)C(O)=C1C2=O (stereo partly shown) [Compound d, reference compound] |  |
